Assay results taken from the supplement of paper PMC10307832.

Columns and labels:
Experiment in all cases: relative viability (nuclei count vs DMSO), 5 days (fraction); higher = more cells survive
VX-11e = compound: CC1=CN=C(N=C1C2=CNC(=C2)C(=O)N[C@H](CO)C3=CC(=CC=C3)Cl)NC4=C(C=C(C=C4)F)Cl [VX-11e]
Procedure, shortened: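 Vehicle-anchored 1536-well plates of lung cancer cell lines, held overnight at 37 °C, were pinned with five library-drug doses (not always all listed) spaced by √10. No medium change followed over the next 5 days, after which the cells were fixed, permeabilised and Hoechst-stained together and imaged at 4×. Nuclei were counted with MetaXpress, and viability is treated-well nuclei over vehicle-well nuclei, taken as a median across plates. Plates passed with control CV below 25% and at least one doubling.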

VX-11e + Bortezomib = compound: CC1=CN=C(N=C1C2=CNC(=C2)C(=O)N[C@H](CO)C3=CC(=CC=C3)Cl)NC4=C(C=C(C=C4)F)Cl [VX-11e] + CC(C)C[C@H](NC(=O)[C@H](Cc1ccccc1)NC(=O)c1cnccn1)B(O)O [Bortezomib] (partner 0.002 µM)
Procedure, shortened: (§1)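 For relative viability, nuclei counts in treated wells were divided by those in vehicle wells. Lung cancer cell lines had been pin-tool dosed in 1536-well plates the day after seeding and cultured for 5 days, then fixed and stained in one step (final 0.05% Triton X-100, 1% formaldehyde, 1 ug/ml Hoechst) and imaged at 4×. Doses were one drug alone or a fixed anchor-drug dose plus five library-drug doses (not always all listed) in √10 steps, and values are duplicate-plate medians.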

VX-11e + Navitoclax = compound: CC1=CN=C(N=C1C2=CNC(=C2)C(=O)N[C@H](CO)C3=CC(=CC=C3)Cl)NC4=C(C=C(C=C4)F)Cl [VX-11e] + CC1(C)CCC(c2ccc(Cl)cc2)=C(CN2CCN(c3ccc(C(=O)NS(=O)(=O)c4ccc(N[C@H](CCN5CCOCC5)CSc5ccccc5)c(S(=O)(=O)C(F)(F)F)c4)cc3)CC2)C1 [Navitoclax] (partner 0.5 µM)
Procedure, shortened: as §1

VX-11e + Foretinib = compound: CC1=CN=C(N=C1C2=CNC(=C2)C(=O)N[C@H](CO)C3=CC(=CC=C3)Cl)NC4=C(C=C(C=C4)F)Cl [VX-11e] + COc1cc2c(Oc3ccc(NC(=O)C4(C(=O)Nc5ccc(F)cc5)CC4)cc3F)ccnc2cc1OCCCN1CCOCC1 [Foretinib] (partner 0.25 µM)
Procedure, shortened: as §1

VX-11e + Lapatinib = compound: CC1=CN=C(N=C1C2=CNC(=C2)C(=O)N[C@H](CO)C3=CC(=CC=C3)Cl)NC4=C(C=C(C=C4)F)Cl [VX-11e] + CS(=O)(=O)CCNCc1ccc(-c2ccc3ncnc(Nc4ccc(OCc5cccc(F)c5)c(Cl)c4)c3c2)o1 [Lapatinib] (partner 2 µM)
Procedure, shortened: as §1

VX-11e + Pictilisib = compound: CC1=CN=C(N=C1C2=CNC(=C2)C(=O)N[C@H](CO)C3=CC(=CC=C3)Cl)NC4=C(C=C(C=C4)F)Cl [VX-11e] + CS(=O)(=O)N1CCN(Cc2cc3nc(-c4cccc5[nH]ncc45)nc(N4CCOCC4)c3s2)CC1 [Pictilisib] (partner 1 µM)
Procedure, shortened: as §1

VX-11e + Crizotinib = compound: CC1=CN=C(N=C1C2=CNC(=C2)C(=O)N[C@H](CO)C3=CC(=CC=C3)Cl)NC4=C(C=C(C=C4)F)Cl [VX-11e] + C[C@@H](Oc1cc(-c2cnn(C3CCNCC3)c2)cnc1N)c1c(Cl)ccc(F)c1Cl [Crizotinib] (partner 1 µM)
Procedure, shortened: as §1

VX-11e + Linsitinib = compound: CC1=CN=C(N=C1C2=CNC(=C2)C(=O)N[C@H](CO)C3=CC(=CC=C3)Cl)NC4=C(C=C(C=C4)F)Cl [VX-11e] + C[C@]1(O)C[C@@H](c2nc(-c3ccc4ccc(-c5ccccc5)nc4c3)c3c(N)nccn32)C1 [Linsitinib] (partner 1 µM)
Procedure, shortened: as §1

VX-11e + Alpelisib = compound: CC1=CN=C(N=C1C2=CNC(=C2)C(=O)N[C@H](CO)C3=CC(=CC=C3)Cl)NC4=C(C=C(C=C4)F)Cl [VX-11e] + Cc1nc(NC(=O)N2CCC[C@H]2C(N)=O)sc1-c1ccnc(C(C)(C)C(F)(F)F)c1 [Alpelisib] (partner 2 µM)
Procedure, shortened: as §1

VX-11e + Vorinostat = compound: CC1=CN=C(N=C1C2=CNC(=C2)C(=O)N[C@H](CO)C3=CC(=CC=C3)Cl)NC4=C(C=C(C=C4)F)Cl [VX-11e] + O=C(CCCCCCC(=O)Nc1ccccc1)NO [Vorinostat] (partner 1 µM)
Procedure, shortened: as §1

VX-11e + Olaparib = compound: CC1=CN=C(N=C1C2=CNC(=C2)C(=O)N[C@H](CO)C3=CC(=CC=C3)Cl)NC4=C(C=C(C=C4)F)Cl [VX-11e] + O=C(c1cc(Cc2n[nH]c(=O)c3ccccc23)ccc1F)N1CCN(C(=O)C2CC2)CC1 [Olaparib] (partner 8 µM)
Procedure, shortened: as §1

VX-11e + Luminespib = compound: CC1=CN=C(N=C1C2=CNC(=C2)C(=O)N[C@H](CO)C3=CC(=CC=C3)Cl)NC4=C(C=C(C=C4)F)Cl [VX-11e] + CCNC(=O)c1noc(-c2cc(C(C)C)c(O)cc2O)c1-c1ccc(CN2CCOCC2)cc1 [Luminespib] (partner 0.01 µM)
Procedure, shortened: as §1

VX-11e + OSI-027 = compound: CC1=CN=C(N=C1C2=CNC(=C2)C(=O)N[C@H](CO)C3=CC(=CC=C3)Cl)NC4=C(C=C(C=C4)F)Cl [VX-11e] + COc1cccc2cc(-c3nc([C@H]4CC[C@H](C(=O)O)CC4)n4ncnc(N)c34)[nH]c12 [OSI-027] (partner 0.5 µM)
Procedure, shortened: as §1

VX-11e + Tozasertib = compound: CC1=CN=C(N=C1C2=CNC(=C2)C(=O)N[C@H](CO)C3=CC(=CC=C3)Cl)NC4=C(C=C(C=C4)F)Cl [VX-11e] + Cc1cc(Nc2cc(N3CCN(C)CC3)nc(Sc3ccc(NC(=O)C4CC4)cc3)n2)n[nH]1 [Tozasertib] (partner 0.1 µM)
Procedure, shortened: as §1

VX-11e + Dasatinib = compound: CC1=CN=C(N=C1C2=CNC(=C2)C(=O)N[C@H](CO)C3=CC(=CC=C3)Cl)NC4=C(C=C(C=C4)F)Cl [VX-11e] + Cc1nc(Nc2ncc(C(=O)Nc3c(C)cccc3Cl)s2)cc(N2CCN(CCO)CC2)n1 [Dasatinib] (partner 0.075 µM)
Procedure, shortened: as §1

VX-11e + Phenformin = compound: CC1=CN=C(N=C1C2=CNC(=C2)C(=O)N[C@H](CO)C3=CC(=CC=C3)Cl)NC4=C(C=C(C=C4)F)Cl [VX-11e] + N=C(N)NC(=N)NCCc1ccccc1 [Phenformin] (partner 250 µM)
Procedure, shortened: as §1

IA-LM
relative viability (VX-11e; 0.04 µM): 0.767
relative viability (VX-11e; 0.1265 µM): 0.916
relative viability (VX-11e; 0.4 µM): 0.913
relative viability (VX-11e; 1.265 µM): 0.468
relative viability (VX-11e; 4 µM): 0.129
relative viability (VX-11e + Bortezomib; first compound 0.04 µM): 0.959
relative viability (VX-11e + Bortezomib; first compound 0.1265 µM): 0.941
relative viability (VX-11e + Bortezomib; first compound 0.4 µM): 0.927
relative viability (VX-11e + Bortezomib; first compound 1.265 µM): 0.306
relative viability (VX-11e + Bortezomib; first compound 4 µM): 0.105
relative viability (VX-11e + Navitoclax; first compound 0.04 µM): 0.899
relative viability (VX-11e + Navitoclax; first compound 0.1265 µM): 0.891
relative viability (VX-11e + Navitoclax; first compound 0.4 µM): 0.844
relative viability (VX-11e + Navitoclax; first compound 1.265 µM): 0.415
relative viability (VX-11e + Navitoclax; first compound 4 µM): 0.0436
relative viability (VX-11e + Foretinib; first compound 0.04 µM): 1.09
relative viability (VX-11e + Foretinib; first compound 0.1265 µM): 1.17
relative viability (VX-11e + Foretinib; first compound 0.4 µM): 1.22
relative viability (VX-11e + Foretinib; first compound 1.265 µM): 0.486
relative viability (VX-11e + Foretinib; first compound 4 µM): 0.0917
relative viability (VX-11e + Lapatinib; first compound 0.04 µM): 0.71
relative viability (VX-11e + Lapatinib; first compound 0.1265 µM): 0.945
relative viability (VX-11e + Lapatinib; first compound 0.4 µM): 0.853
relative viability (VX-11e + Lapatinib; first compound 1.265 µM): 0.17
relative viability (VX-11e + Lapatinib; first compound 4 µM): 0.126
relative viability (VX-11e + Pictilisib; first compound 0.04 µM): 0.327
relative viability (VX-11e + Pictilisib; first compound 0.1265 µM): 0.263
relative viability (VX-11e + Pictilisib; first compound 0.4 µM): 0.199
relative viability (VX-11e + Pictilisib; first compound 1.265 µM): 0.0879
relative viability (VX-11e + Pictilisib; first compound 4 µM): 0.0695
relative viability (VX-11e + Crizotinib; first compound 0.04 µM): 0.931
relative viability (VX-11e + Crizotinib; first compound 0.1265 µM): 0.961
relative viability (VX-11e + Crizotinib; first compound 0.4 µM): 0.697
relative viability (VX-11e + Crizotinib; first compound 1.265 µM): 0.271
relative viability (VX-11e + Crizotinib; first compound 4 µM): 0.116
relative viability (VX-11e + Linsitinib; first compound 0.04 µM): 0.694
relative viability (VX-11e + Linsitinib; first compound 0.1265 µM): 0.516
relative viability (VX-11e + Linsitinib; first compound 0.4 µM): 0.469
relative viability (VX-11e + Linsitinib; first compound 1.265 µM): 0.132
relative viability (VX-11e + Linsitinib; first compound 4 µM): 0.142
relative viability (VX-11e + Alpelisib; first compound 0.04 µM): 0.855
relative viability (VX-11e + Alpelisib; first compound 0.1265 µM): 0.734
relative viability (VX-11e + Alpelisib; first compound 0.4 µM): 0.756
relative viability (VX-11e + Alpelisib; first compound 1.265 µM): 0.387
relative viability (VX-11e + Alpelisib; first compound 4 µM): 0.143
relative viability (VX-11e + Vorinostat; first compound 0.04 µM): 1.07
relative viability (VX-11e + Vorinostat; first compound 0.1265 µM): 0.814
relative viability (VX-11e + Vorinostat; first compound 0.4 µM): 0.941
relative viability (VX-11e + Vorinostat; first compound 1.265 µM): 0.668
relative viability (VX-11e + Vorinostat; first compound 4 µM): 0.302
relative viability (VX-11e + Olaparib; first compound 0.04 µM): 0.877
relative viability (VX-11e + Olaparib; first compound 0.1265 µM): 0.864
relative viability (VX-11e + Olaparib; first compound 0.4 µM): 0.963
relative viability (VX-11e + Olaparib; first compound 1.265 µM): 0.536
relative viability (VX-11e + Olaparib; first compound 4 µM): 0.173

NCI-H1623
relative viability (VX-11e; 0.04 µM): 0.967
relative viability (VX-11e; 0.1265 µM): 1.04
relative viability (VX-11e; 0.4 µM): 0.724
relative viability (VX-11e; 1.265 µM): 0.678
relative viability (VX-11e; 4 µM): 0.561
relative viability (VX-11e + Luminespib; first compound 0.04 µM): 0.434
relative viability (VX-11e + Luminespib; first compound 0.1265 µM): 0.492
relative viability (VX-11e + Luminespib; first compound 0.4 µM): 0.3
relative viability (VX-11e + Luminespib; first compound 1.265 µM): 0.48
relative viability (VX-11e + Luminespib; first compound 4 µM): 0.337
relative viability (VX-11e + Foretinib; first compound 0.04 µM): 0.856
relative viability (VX-11e + Foretinib; first compound 0.1265 µM): 0.934
relative viability (VX-11e + Foretinib; first compound 0.4 µM): 0.588
relative viability (VX-11e + Foretinib; first compound 1.265 µM): 0.619
relative viability (VX-11e + Foretinib; first compound 4 µM): 0.473
relative viability (VX-11e + OSI-027; first compound 0.04 µM): 0.43
relative viability (VX-11e + OSI-027; first compound 0.1265 µM): 0.446
relative viability (VX-11e + OSI-027; first compound 0.4 µM): 0.423
relative viability (VX-11e + OSI-027; first compound 1.265 µM): 0.307
relative viability (VX-11e + OSI-027; first compound 4 µM): 0.278
relative viability (VX-11e + Tozasertib; first compound 0.04 µM): 0.396
relative viability (VX-11e + Tozasertib; first compound 0.1265 µM): 0.426
relative viability (VX-11e + Tozasertib; first compound 0.4 µM): 0.418
relative viability (VX-11e + Tozasertib; first compound 1.265 µM): 0.38
relative viability (VX-11e + Tozasertib; first compound 4 µM): 0.23
relative viability (VX-11e + Dasatinib; first compound 0.04 µM): 0.526
relative viability (VX-11e + Dasatinib; first compound 0.1265 µM): 0.624
relative viability (VX-11e + Dasatinib; first compound 0.4 µM): 0.369
relative viability (VX-11e + Dasatinib; first compound 1.265 µM): 0.457
relative viability (VX-11e + Dasatinib; first compound 4 µM): 0.398
relative viability (VX-11e + Phenformin; first compound 0.04 µM): 0.53
relative viability (VX-11e + Phenformin; first compound 0.1265 µM): 0.623
relative viability (VX-11e + Phenformin; first compound 0.4 µM): 0.433
relative viability (VX-11e + Phenformin; first compound 1.265 µM): 0.546
relative viability (VX-11e + Phenformin; first compound 4 µM): 0.409
